This test concerns CD2F1 mice, L1210 leukemia ip, survival T/C. As to the kind of experiment: NCI In Vivo Anticancer Drug Screen. Data for tumor model L1210 Leukemia (intraperitoneal) in CD2F1 (CDF1) mice. Particulars: higher = longer survival. The method, boiled down: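 Vehicle-treated tumor-bearing mice served as controls (C) for compound-treated mice (T). Reported figure is T divided by C.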
[1] abbreviates: endpoint: mean survival time, dose: 100.0 mg/kg/injection, schedule: Q04DX002 (ip), vehicle: saline with Tween-80.
The mark [2] stands for this setting: endpoint: mean survival time, dose: 200.0 mg/kg/injection, schedule: Q04DX002 (ip), vehicle: saline with Tween-80.
Where [3] appears, read: endpoint: mean survival time, dose: 400.0 mg/kg/injection, schedule: Q04DX002 (ip), vehicle: saline with Tween-80.
The mark [4] stands for this setting: endpoint: mean survival time, dose: 100.0 mg/kg/injection, schedule: Q04DX003 (ip), vehicle: saline with Tween-80.
The mark [5] stands for this setting: endpoint: mean survival time, dose: 200.0 mg/kg/injection, schedule: Q04DX003 (ip), vehicle: saline with Tween-80.
Setting [6] is: endpoint: mean survival time, dose: 400.0 mg/kg/injection, schedule: Q04DX003 (ip), vehicle: saline with Tween-80.
Where [7] appears, read: endpoint: mean survival time, dose: 100.0 mg/kg/injection, schedule: Q01DX001 (ip), vehicle: saline with Tween-80.
The mark [8] stands for this setting: endpoint: mean survival time, dose: 200.0 mg/kg/injection, schedule: Q01DX001 (ip), vehicle: saline with Tween-80.

Several values for one entry are separate records, joined by “and”; a condition that tells them apart may be missing. Identical values can stand only once. Toxic doses and inconclusive results are not listed.

As for `CCCc1ccc(Nc2c3ccccc3nc3ccccc23)cc1`, the T/C is, setting by setting: under setting [1], 107 % of control; under setting [2], 114 % of control; under setting [3], 105 % of control.
Turning to `F[B-](F)(F)F`, the T/C (endpoint: mean survival time, dose: 12.5 mg/kg/injection, schedule: Q01DX009 (ip), vehicle: gum acacia) was 94 % of control and 106 % of control; the T/C (endpoint: mean survival time, dose: 25.0 mg/kg/injection, schedule: Q01DX009 (ip), vehicle: gum acacia) was 98 % of control; the T/C (endpoint: mean survival time, dose: 50.0 mg/kg/injection, schedule: Q01DX009 (ip), vehicle: gum acacia) is 96 % of control and 106 % of control; the T/C (endpoint: mean survival time, dose: 100.0 mg/kg/injection, schedule: Q01DX009 (ip), vehicle: gum acacia) is 95 % of control and 101 % of control; the T/C (endpoint: mean survival time, dose: 200.0 mg/kg/injection, schedule: Q01DX009 (ip), vehicle: gum acacia) was 109 % of control; the T/C (endpoint: mean survival time, dose: 400.0 mg/kg/injection, schedule: Q01DX009 (ip), vehicle: gum acacia) was 98 % of control.
Regarding `O=C(NC1CCCCC1)NC1CCCCC1`, the T/C is, setting by setting: under setting [4], 100 % of control; under setting [5], 98 % of control; under setting [6], 93 % of control.
Consider `O=S(=O)(Cc1ccccc1)CS(=O)(=O)Cc1ccccc1`, for which the T/C under setting [7] is 98 % of control; the T/C under setting [8] was 97 % of control; the T/C (endpoint: mean survival time, dose: 400.0 mg/kg/injection, schedule: Q01DX001 (ip), vehicle: saline with Tween-80) is 86 % of control.
As to `Nc1ccnnc1`, the T/C reads like this: (endpoint: mean survival time, dose: 100.0 mg/kg/injection, schedule: Q04DX003 (ip), vehicle: saline) 98 % of control; (endpoint: mean survival time, dose: 200.0 mg/kg/injection, schedule: Q04DX003 (ip), vehicle: saline) 101 % of control.
`C=CS(C=C)=NS(=O)(=O)c1ccc(C)cc1`: the T/C by setting is: (endpoint: mean survival time, dose: 1.56 mg/kg/injection, schedule: Q01DX009 (ip), vehicle: Klucel (hydroxypropylcellulose) (HPC)) 97 % of control and 107 % of control; (endpoint: mean survival time, dose: 3.12 mg/kg/injection, schedule: Q01DX009 (ip), vehicle: Klucel (hydroxypropylcellulose) (HPC)) 100 % of control and 105 % of control; (endpoint: mean survival time, dose: 6.25 mg/kg/injection, schedule: Q01DX009 (ip), vehicle: Klucel (hydroxypropylcellulose) (HPC)) 95 % of control and 103 % of control; (endpoint: mean survival time, dose: 12.5 mg/kg/injection, schedule: Q01DX009 (ip), vehicle: Klucel (hydroxypropylcellulose) (HPC)) 100 % of control and 107 % of control; (endpoint: mean survival time, dose: 25.0 mg/kg/injection, schedule: Q01DX009 (ip), vehicle: Klucel (hydroxypropylcellulose) (HPC)) 97 % of control and 105 % of control.
With `C/C=C/c1cc2n(c1)C(=O)c1cc(OC3OC(C)C(NC)C(C)(O)C3O)c(C)c(O)c1NC2O` (configuration not stated), the T/C reads like this: (endpoint: mean survival time, dose: 4.0 micrograms/kg/injection, schedule: Q01DX009 (ip), vehicle: saline) 108 % of control; (endpoint: mean survival time, dose: 8.0 micrograms/kg/injection, schedule: Q01DX009 (ip), vehicle: saline) 110 % of control.
Take `O=Cc1[nH]c(=S)[nH]c(=O)c1Cc1cccc2ccccc12`: the T/C was 96 % of control under setting [4], 95 % of control under setting [5] and 102 % of control under setting [6].
As to `O=P(O)(O)OCC(O)CF` (configuration not stated), the T/C (endpoint: mean survival time, dose: 87.5 mg/kg/injection, schedule: Q04DX003 (ip), vehicle: saline) was 118 % of control.
Turning to `CC(C)CCCC(C)C1CCC2C3CC=C4CC(C(=O)O)CCC4C3CCC12C` (configuration not stated), the T/C under setting [4] was 92 % of control, the T/C under setting [5] was 88 % of control and the T/C under setting [6] is 88 % of control.
For the compound `COc1ccc(C(OCC2OC(n3cc(C)c(=O)[nH]c3=O)CC2OP(=O)(O)OCC2OC(n3cc(C)c(=O)[nH]c3=O)CC2OP(=O)(O)OCC2OC(n3cc(C)c(=O)[nH]c3=O)CC2OP(=O)(O)OCC2OC(n3cc(C)c(=O)[nH]c3=O)CC2OP(=O)(O)OCC2OC(n3ccc(N)nc3=O)C(O)C2O)(c2ccccc2)c2ccccc2)cc1` (configuration not stated), the T/C is 108 % of control (endpoint: median survival time, dose: 25.0 mg/kg/injection, schedule: Q01DX005 (ip), vehicle: saline); 122 % of control (endpoint: median survival time, dose: 50.0 mg/kg/injection, schedule: Q01DX005 (ip), vehicle: saline); 162 % of control (endpoint: median survival time, dose: 400.0 mg/kg/injection, schedule: Q01DX005 (ip), vehicle: saline).
As for `CC(=O)c1ccc[n+](CCc2c[nH]c3ccccc23)c1`, the T/C is, setting by setting: (endpoint: mean survival time, dose: 12.5 mg/kg/injection, schedule: Q01DX009 (ip), vehicle: saline sonified) 103 % of control; (endpoint: mean survival time, dose: 12.5 mg/kg/injection, schedule: Q04DX003 (ip), vehicle: saline with Tween-80) 98 % of control; (endpoint: mean survival time, dose: 25.0 mg/kg/injection, schedule: Q01DX009 (ip), vehicle: saline sonified) 100 % of control; (endpoint: mean survival time, dose: 25.0 mg/kg/injection, schedule: Q04DX003 (ip), vehicle: saline with Tween-80) 104 % of control; (endpoint: mean survival time, dose: 50.0 mg/kg/injection, schedule: Q01DX009 (ip), vehicle: saline sonified) 103 % of control; (endpoint: mean survival time, dose: 50.0 mg/kg/injection, schedule: Q04DX003 (ip), vehicle: saline with Tween-80) 103 % of control.
Regarding `CN(C)c1nc(N)nc(-c2cc[n+]([O-])cc2)n1`, the T/C reads like this: (endpoint: mean survival time, dose: 100.0 mg/kg/injection, schedule: Q04DX002 (ip), vehicle: saline) 103 % of control; (endpoint: mean survival time, dose: 200.0 mg/kg/injection, schedule: Q04DX002 (ip), vehicle: saline) 88 % of control.
On to `OCc1c(Cl)c(Cl)c(CO)c(Cl)c1Cl`, for which the T/C is 95 % of control (endpoint: mean survival time, dose: 100.0 mg/kg/injection, schedule: Q01DX009 (ip), vehicle: saline with Tween-80); 102 % of control under setting [4]; 90 % of control (endpoint: mean survival time, dose: 200.0 mg/kg/injection, schedule: Q01DX009 (ip), vehicle: saline with Tween-80); 100 % of control under setting [5]; 94 % of control (endpoint: mean survival time, dose: 400.0 mg/kg/injection, schedule: Q01DX009 (ip), vehicle: saline with Tween-80); 96 % of control under setting [6].
In the case of `NC(=O)c1cn(C2OC(CO)CC2O)c2ncnc(N)c12` (configuration not stated), the T/C is, setting by setting: (endpoint: mean survival time, dose: 0.13 mg/kg/injection, schedule: Q01DX009 (ip), vehicle: water) 90 % of control; (endpoint: mean survival time, dose: 0.25 mg/kg/injection, schedule: Q01DX009 (ip), vehicle: water) 98 % of control; (endpoint: mean survival time, dose: 0.5 mg/kg/injection, schedule: Q01DX009 (ip), vehicle: water) 96 % of control; (endpoint: mean survival time, dose: 1.0 mg/kg/injection, schedule: Q01DX009 (ip), vehicle: water) 102 % of control; (endpoint: mean survival time, dose: 2.0 mg/kg/injection, schedule: Q01DX009 (ip), vehicle: water) 113 % of control; (endpoint: mean survival time, dose: 8.0 mg/kg/injection, schedule: Q01DX009 (ip), vehicle: water) 110 % of control. In addition, the T/C (endpoint: mean survival time, dose: 32.0 mg/kg/injection, schedule: Q01DX009 (ip), vehicle: water) was 122 % of control.
On to `COc1ccc(OC)c(C2(O)C=C(Cl)C(=O)C=C2Cl)c1` (configuration not stated), for which the T/C under setting [7] was 101 % of control and the T/C under setting [8] was 97 % of control.
As to `CN(C)C(=S)NNC(=O)c1ccc(Cl)cc1`, under “endpoint: mean survival time, dose: 25.0 mg/kg/injection, schedule: Q01DX001 (ip), vehicle: saline with Tween-80”, the T/C is 98 % of control.
Turning to `O=P(CCCCl)(OCCCCl)OCCCCl`, the T/C (endpoint: mean survival time, dose: 100.0 mg/kg/injection, schedule: Q01DX009 (ip), vehicle: saline) was 100 % of control; the T/C (endpoint: mean survival time, dose: 200.0 mg/kg/injection, schedule: Q01DX009 (ip), vehicle: saline) was 101 % of control; the T/C (endpoint: mean survival time, dose: 400.0 mg/kg/injection, schedule: Q01DX009 (ip), vehicle: saline) was 100 % of control.
Take `Nc1cc(OCC(=O)O)c(Cl)cc1Cl`: the T/C is 96 % of control (endpoint: mean survival time, dose: 50.0 mg/kg/injection, schedule: Q01DX009 (ip), vehicle: Klucel (hydroxypropylcellulose) (HPC)); 89 % of control (endpoint: mean survival time, dose: 100.0 mg/kg/injection, schedule: Q01DX009 (ip), vehicle: Klucel (hydroxypropylcellulose) (HPC)); 93 % of control (endpoint: mean survival time, dose: 200.0 mg/kg/injection, schedule: Q01DX009 (ip), vehicle: Klucel (hydroxypropylcellulose) (HPC)).
As to `CCNC(C)(C)C(SS)c1ccc(C(F)(F)F)cc1` (configuration not stated), the T/C reads like this: under setting [4], 88 % of control; under setting [5], 90 % of control; under setting [6], 93 % of control.
Turning to `O=C1CCn2cccc21`, the T/C runs as follows: (endpoint: median survival time, dose: 25.0 mg/kg/injection, schedule: Q04DX002 (ip), vehicle: saline) 100 % of control; (endpoint: median survival time, dose: 50.0 mg/kg/injection, schedule: Q04DX002 (ip), vehicle: saline) 100 % of control; (endpoint: median survival time, dose: 100.0 mg/kg/injection, schedule: Q04DX002 (ip), vehicle: saline) 100 % of control; (endpoint: median survival time, dose: 200.0 mg/kg/injection, schedule: Q04DX002 (ip), vehicle: saline) 100 % of control.
Regarding `O=C(O)C1C(=O)CC2(O)c3ccccc3-c3ccccc3C12` (configuration not stated), the T/C is, setting by setting: (endpoint: mean survival time, dose: 100.0 mg/kg/injection, schedule: Q01DX001 (ip), vehicle: Klucel (hydroxypropylcellulose) (HPC)) 98 % of control; under setting [1], 96 % of control; (endpoint: mean survival time, dose: 200.0 mg/kg/injection, schedule: Q01DX001 (ip), vehicle: Klucel (hydroxypropylcellulose) (HPC)) 94 % of control; under setting [2], 93 % of control; (endpoint: mean survival time, dose: 400.0 mg/kg/injection, schedule: Q01DX001 (ip), vehicle: Klucel (hydroxypropylcellulose) (HPC)) 94 % of control; under setting [3], 93 % of control.
